Measured values from ChEMBL document CHEMBL4715910, “Insights into non-peptide small-molecule inhibitors of the PD-1/PD-L1 interaction: Development and perspective” (Bioorg Med Chem, 2021).

Assays:
[1] = target: Programmed cell death protein 1/Programmed cell death 1 ligand 1 (Homo sapiens, UniProt Q15116+Q9NZQ7); experiment: Inhibition of PD-1/PDL1 (unknown origin) by ELISA; assay type: protein-complex assay
Jurkat = experiment: Cytotoxicity against human Jurkat T cells assessed as reduction in cell viability; assay type: cell-based
[2] = target: Programmed cell death 1 ligand 1 (Homo sapiens) (UniProt Q9NZQ7)
Chain of Programmed cell death 1 ligand 1 (Homo sapiens) (Q9NZQ7 whole entry): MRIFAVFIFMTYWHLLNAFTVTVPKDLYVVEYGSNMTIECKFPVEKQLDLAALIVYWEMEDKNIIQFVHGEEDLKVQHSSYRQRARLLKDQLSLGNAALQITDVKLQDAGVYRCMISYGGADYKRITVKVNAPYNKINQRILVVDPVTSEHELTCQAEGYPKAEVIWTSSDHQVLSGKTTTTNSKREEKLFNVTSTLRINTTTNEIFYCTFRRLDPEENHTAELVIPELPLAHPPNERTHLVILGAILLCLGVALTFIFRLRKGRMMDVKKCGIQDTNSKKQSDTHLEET
Description: Binding affinity to human PDL1 (18 to 134 residues) expressed in Escherichia coli BL21 (DE3) cells assessed as melting temperature by differential scanning fluorimetry (Rvb = 35.4 degreec)

Chain of Programmed cell death protein 1/Programmed cell death 1 ligand 1 (Q15116 whole entry): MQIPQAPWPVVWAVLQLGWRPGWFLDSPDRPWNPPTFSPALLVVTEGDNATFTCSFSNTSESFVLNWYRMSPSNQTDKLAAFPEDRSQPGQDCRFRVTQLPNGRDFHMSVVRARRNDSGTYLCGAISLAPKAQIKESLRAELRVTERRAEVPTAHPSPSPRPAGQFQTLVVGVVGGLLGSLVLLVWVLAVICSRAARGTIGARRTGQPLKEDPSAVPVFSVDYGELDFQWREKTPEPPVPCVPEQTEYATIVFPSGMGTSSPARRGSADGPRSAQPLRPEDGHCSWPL
Chain of Programmed cell death protein 1/Programmed cell death 1 ligand 1 (Q9NZQ7 whole entry): as the sequence (Q9NZQ7 whole entry) above

SMILES | IC50 [1] | further results
Cc1cc(C(=O)Nc2cccc(-c3ccccc3)c2C)ncc1CN1CCCC[C@H]1C(=O)O | ≤ 10 nM | 
Cc1c(Nc2nccc3ccc(CNCCO)nc23)cccc1-c1ccccc1 | ≤ 10 nM | 
Cc1c(-c2ccccc2)cccc1-c1nc2cc(CN3CCCC[C@H]3C(=O)O)cc(C)c2o1 | ≤ 10 nM | 
Cc1c(-c2ccccc2)cccc1-c1nc2cc(CNCCO)ccc2o1 | ≤ 10 nM | 
Cc1c(Nc2nccc3c(CN4CCCCC4C(=O)O)ccnc23)cccc1-c1ccccc1 (stereo not given) | ≤ 10 nM | 
Cc1c(COc2ccc(CN3CCCC[C@H]3C(=O)O)cc2Br)cccc1-c1cccc(COc2ccc(CN3CCCC[C@H]3C(=O)O)cc2Br)c1C | ≤ 10 nM | 
Cc1cc(CNCCO)ccc1OCc1cccc(-c2cccc(COc3ccc(CNCCO)cc3C)c2C)c1C | ≤ 10 nM | 
Cc1cc(CN[C@H](CO)C(=O)O)c(OCc2cccc(C#N)c2)cc1OCc1cccc(-c2ccc3c(c2)OCCO3)c1C |  | IC50 (Jurkat): < 100 nM
Cc1cc(C(=O)Nc2cccc(-c3ccccc3)c2C)ncc1CNCCO | ≤ 10 nM | 
COc1nc(OCc2cccc(-c3ccccc3)c2C)ccc1CNCCNC(C)=O |  | Tm [2]: 48.4 °C
